Measurements published in patent publication US6599894B1, “Amidinobenzylamine derivatives and their use as thrombin inhibitors” (AstŕaZeneca AB, priority 1999, dated 2003).

Experiment: Test E: determination of thrombin time ex vivo (bioavailability of active inhibitor after prodrug administration)
Conditions: conscious rat, estimated from thrombin time or ecarin clotting time in plasma
Text: Determination of Thrombin Time Ex Vivo
The inhibition of thrombin after oral or parenteral administration of the compounds of formula I, dissolved in ethanol:Solutol™:water (5:5:90), were examined in conscious rats which, one or two days prior to the experiment, were equipped with a catheter for blood sampling from the carotid artery. On the experimental day blood samples were withdrawn at fixed times after the administration of the compound into plastic tubes containing 1 part sodium citrate solution (0.13 mol per L) and 9 parts of blood. The tubes were centrifuged to obtain platelet poor plasma. The plasma was used for determination of thrombin time or ecarin clotting time (ECT) as described below.
The citrated rat plasma, 100 μL, was diluted with a saline solution, 0.9%, 100 μL, and plasma coagulation was started by the addition of human thrombin (T 6769, Sigma Chem Co, USA or Hematologic Technologies) in a buffer solution, pH 7.4, 100 μL, or ecarin (Pentapharm). The clotting time was measured in an automatic device (KC 10, Amelung, Germany).
[(AUCpd/dose)/(AUCactive,parenteral/dose]×100

Compound	oral and/or parenteral bioavailability as the corresponding active inhibitor (free amidine)
CON=C(N)c1ccc(CNC(=O)[C@@H]2CCN2C(=O)C(O)c2cc(Cl)cc(N(C)C)c2)cc1 (single isomer, unassigned) [Example 12, Ph(3-Cl,5-NMe2)-(R) or-(S)CH(OH)C(O)-Aze-Pab(OMe)]	exhibit oral and/or parenteral bioavailability in the rat
CON=C(N)c1ccc(CNC(=O)C2CCN2C(=O)C(O)c2cccc(N(C)C)c2)cc1 [Example 2, Ph(3-N(Me)2)-(R)- or-(S)CH(OH)—CO-Aze-Pab(OMe)]	exhibit oral and/or parenteral bioavailability in the rat
Ph(3-Cl,5-NMe2)-(R) or -(S)CH(OH)C(O)-Aze-Pab(O-Et) [Example 13]	exhibit oral and/or parenteral bioavailability in the rat
Ph(3-Cl,5-NMe2)-(R) or -(S)CH(OH)C(O)-Aze-Pab(O-i-Pr) [Example 15]	exhibit oral and/or parenteral bioavailability in the rat
CON=C(N)c1ccc(CNC(=O)C2CCN2C(=O)C(O)c2cccc(N3CCCC3=O)c2)cc1.O=C(O)C(F)(F)F (single isomer, unassigned) [Example 19, Ph(3-(1-Pyrrolidin-2-one))-(R) or-(S)CH(OH)C(O)-Aze-Pab(OMe)×TFA]	exhibit oral and/or parenteral bioavailability in the rat
CON=C(N)c1ccc(CNC(=O)C2CCN2C(=O)C(O)c2cc(Cl)cc(N(C)C(C)=O)c2)cc1.O=C(O)C(F)(F)F (single isomer, unassigned) [Example 18, Ph(3-Cl,5-NMeAc)-(R) or-(S)CH(OH)C(O)-Aze-Pab(OMe)×TFA]	exhibit oral and/or parenteral bioavailability in the rat
